# Reference: publication PMC8287907 (Nucleic Acids Research, 2021)
# Entries after “also recorded” stand apart in the source; their conditions may differ.
# Target: SUD-NM / TRF2 G4 interaction (Severe acute respiratory syndrome coronavirus 2, UniProt P0DTD1)
# Type: binding, SARS-CoV-2
# Conditions: His-SUD-NM 10 nM, biotinylated TRF2 G4 50 nM, TMP 100 to 500 nM
compound,measurement,value
"Cc1cc2cc3c(C)cc(=O)oc3c(C)c2o1 [TMP, trimethyl psoralen]",Inhibition of the SUD/G4 interaction (in words),No inhibition; also recorded: does not inhibit
